According to US10676468B2, “N-(3-heteroarylaryl)-4-arylarylcarboxamides and analogs as hedgehog pathway inhibitors and use thereof” (IMPACT Therapeutics, Inc., priority 2012, dated 2020):

Columns and labels:
Format in all cases: cell-based, mouse
[1] = system: Hedgehog Signaling Pathway; assay: SHH-induced differentiation of C3H10T1/2 cells into osteoblastic cells, intracellular alkaline phosphatase activity; settings: Mus musculus, C3H 10T1/2, 120 h, 10 nM SHH-N, 5 days, alkaline phosphatase activity (OD405), read-out: IC50 values of compounds that inhibit Hh pathway
In short: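 Mouse C3H10T1/2 cells were induced with 10 nM SHH-N alongside test compound (10 μM–10 nM) for 5 days at 37 °C. Cells were lysed in 0.2% Triton, and alkaline phosphatase activity was read at OD405 over 30 min at 37 °C with the background reading subtracted. IC50 came from a nonlinear fit against log concentration.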

[2] = system: Hedgehog Signaling Pathway; assay: Gli-Luc reporter gene cell assay in C3H10T1/2/Gli-Luc cells stimulated with Shh; settings: Mus musculus, C3H 10T1/2, 24 h, 30 nM Shh, luciferase activity (RLU), read-out: IC50 values of compounds that inhibit Hh pathway
In short: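 C3H10T1/2 cells stably carrying Gli-responsive luciferase were seeded overnight, then treated 24 h at 37 °C with compound (7-point dilution series, DMSO control) plus Shh (30 nM in added medium). Lysate luciferase RLU fitted against log concentration to derive IC50.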

[3] = system: Hedgehog Signaling Pathway; assay: SAG-induced differentiation of C3H10T1/2 cells into osteoblastic cells, intracellular alkaline phosphatase activity; settings: Mus musculus, C3H 10T1/2, 120 h, 1 μM SAG, 5 days, alkaline phosphatase activity (OD405), read-out: IC50 values of compounds that inhibit Hh pathway
In short: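 Mouse C3H10T1/2 cells were induced with SAG and exposed to compound (10 μM to 1 nM) for 5 days at 37 °C. Cells were lysed in 0.2% Triton, and alkaline phosphatase activity was read as OD405 over 30 min at 37 °C in pH 9.8 substrate buffer. IC50 came from a non-linear fit of background-subtracted OD405 against log concentration.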

| Compound | IC50 [1] [nM] | IC50 [2] [nM] | IC50 [3] [nM] |
| --- | --- | --- | --- |
| Cc1cc(-c2ccc(C(F)(F)F)cc2)ccc1C(=O)Nc1ccc(Cl)c(-c2ncc(-c3ccco3)[nH]2)c1 [Example 79, N-(3-(5-(furan-2-yl)-1H-imidazol-2-yl)-4-chlorophenyl)-3-methyl-4′-(trifluoromethyl)biphenyl-4-carboxamide] | 2.7 | 6.6 | 100 |
| Cc1ncc(NC(=O)c2ccc(N3C[C@@H](C)N(C)[C@@H](C)C3)nc2)cc1-c1nc2ccccc2[nH]1 [Example 90, N-(5-(1H-benzo[d]imidazol-2-yl)-6-methylpyridin-3-yl)-6-((3S,5R)-3,4,5-trimethylpiperazin-1-yl)nicotinamide] | 35 | 25 | 461 |
| Cc1cc(N2C[C@@H](C)N(C)[C@@H](C)C2)ccc1C(=O)Nc1ccc(Cl)c(-c2ncc(C(C)(C)C)[nH]2)c1 [Example 174, N-(3-(5-tert-butyl-1H-imidazol-2-yl)-4-chlorophenyl)-2-methyl-4-((3S,5R)-3,4,5-trimethylpiperazin-1-yl)benzamide] | 11 | 5.7 | 91 |
| C[C@@H]1CN(c2ccc(C(=O)Nc3ccc(Cl)c(-c4nc5ccccc5[nH]4)c3)c(Cl)c2)C[C@H](C)N1C [Example 94, N-(3-(1H-benzo[d]imidazol-2-yl)-4-chlorophenyl)-2-chloro-4-((3S,5R)-3,4,5-trimethylpiperazin-1-yl)benzamide] | 0.81 | 0.63 | 16 |
| O=C(Nc1ccc(Cl)c(-c2nc3ccccc3[nH]2)c1)c1ccc(-c2ccc(C(F)(F)F)cc2)cc1Cl [Example 18, N-(3-(1H-benzo[d]imidazol-2-yl)-4-chlorophenyl)-3-chloro-4′-(trifluoromethyl)biphenyl-4-carboxamide] | 3.7 | 8.2 | 60 |
| Cc1cc(N2C[C@@H](C)O[C@@H](C)C2)ncc1C(=O)Nc1ccc(Cl)c(-c2nc3ccccc3[nH]2)c1 [Example 91, N-(3-(1H-benzo[d]imidazol-2-yl)-4-chlorophenyl)-4-methyl-6-((2S,6R)-2,6-dimethylmorpholino)nicotinamide] | 6.8 | 7.8 | 52 |
| Cc1cc(-c2ccc(C(F)(F)F)cc2)ccc1C(=O)Nc1ccc(Cl)c(-c2ccccn2)c1 [Example 59, N-(3-(pyridin-2-yl)-4-chlorophenyl)-3-methyl-4′-(trifluoromethyl)biphenyl-4-carboxamide] | 7.5 | 9.1 | 232 |
| Cc1cc(-c2ccc(C(F)(F)F)cc2)ccc1C(=O)Nc1cncc(-c2nc3ccccc3[nH]2)c1 [Example 60, N-(5-(1H-benzo[d]imidazol-2-yl)pyridin-3-yl)-3-methyl-4′-(trifluoromethyl)biphenyl-4-carboxamide] | 18 | 23 | 141 |
| C[C@@H]1CN(c2ccc(C(=O)Nc3cnc(Cl)c(-c4nc5ccc(F)cc5[nH]4)c3)c(Cl)c2)C[C@H](C)N1C [Example 129, N-(5-(6-fluoro-1H-benzo[d]imidazol-2-yl)-6-chloropyridin-3-yl)-2-chloro-4-((3S,5R)-3,4,5-trimethylpiperazin-1-yl)benzamide] | 7.5 | 4 | 82 |
| Cc1c(C(=O)Nc2ccc(Cl)c(-c3ncc(-c4ccco4)[nH]3)c2)ccc(N2C[C@@H](C)N(C)[C@@H](C)C2)c1F [Example 148, N-(3-(5-(furan-2-yl)-1H-imidazol-2-yl)-4-chlorophenyl)-2-methyl-3-fluoro-4-((3S,5R)-3,4,5-trimethylpiperazin-1-yl)benzamide] | 0.33 | 0.26 | 15 |
| C[C@@H]1CN(c2ccc(C(=O)Nc3ccc(Cl)c(-c4ncc(C(C)(C)C)[nH]4)c3)c(Cl)c2)C[C@H](C)N1C [Example 175, N-(3-(5-tert-butyl-1H-imidazol-2-yl)-4-chlorophenyl)-2-chloro-4-((3S,5R)-3,4,5-trimethylpiperazin-1-yl)benzamide] | 6.1 | 7.6 | 176 |
| C[C@@H]1CN(c2ccc(C(=O)Nc3ccc(Cl)c(-c4cn5ccsc5n4)c3)c(Cl)c2)C[C@H](C)N1C [Example 205, N-(3-(imidazo[2,1-b]thiazol-6-yl)-4-chlorophenyl)-2-chloro-4-((3S,5R)-3,4,5-trimethylpiperazin-1-yl)benzamide] | 94 | 29 | 250 |
| Cc1cc(N2C[C@@H](C)N(C)[C@@H](C)C2)ccc1C(=O)Nc1ccc(Cl)c(-c2nc3ccccc3o2)c1 [Example 206, N-(3-(benzo[d]oxazol-2-yl)-4-chlorophenyl)-2-methyl-4-((3S,5R)-3,4,5-trimethylpiperazin-1-yl)benzamide] | 46 | 27 | 244 |
| Cc1cc(-c2ccc(C#N)cc2)ccc1C(=O)Nc1ccc(Cl)c(-c2nc3ccccc3[nH]2)c1 [Example 6, N-(3-(1H-benzo[d]imidazol-2-yl)-4-chlorophenyl)-3-methyl-4′-cyanobiphenyl-4-carboxamide] | 2.6 | 3.3 | 19 |
| Cc1cc(-c2ccc(C(F)(F)F)cc2)ccc1C(=O)Nc1ccc(Cl)c(-c2nc3ccccc3n2C)c1 [Example 47, N-(3-(1-methyl-1H-benzo[d]imidazol-2-yl)-4-chlorophenyl)-3-methyl-4′-(trifluoromethyl)biphenyl-4-carboxamide] | 3.3 | 8.7 | 102 |
| Cc1cc(N2C[C@@H](C)O[C@@H](C)C2)ncc1C(=O)Nc1cnc(Cl)c(-c2nc3ccccc3[nH]2)c1 [Example 85, N-(5-(1H-benzo[d]imidazol-2-yl)-6-chloropyridin-3-yl)-4-methyl-6-((2S,6R)-2,6-dimethylmorpholino)nicotinamide] | 5.6 | 7.1 | 49 |
| CC(C)N1[C@H](C)CN(c2ccc(C(=O)Nc3ccc(Cl)c(-c4nc5ccccc5[nH]4)c3)c(Cl)c2)C[C@@H]1C [Example 125, N-(3-(1H-benzo[d]imidazol-2-yl)-4-chlorophenyl)-2-chloro-4-((3S,5R)-4-isopropyl-3,5-dimethylpiperazin-1-yl)benzamide] | 1.2 | 0.57 | 23 |
| Cc1cc(N2C[C@@H](C)N(C)[C@@H](C)C2)ccc1C(=O)Nc1ccc(Cl)c(-c2nc(C)c(-c3cccs3)[nH]2)c1 [Example 143, N-(3-(4-methyl-5-(thiophen-2-yl)-1H-imidazol-2-yl)-4-chlorophenyl)-2-methyl-4-((3S,5R)-3,4,5-trimethylpiperazin-1-yl)benzamide] | 15 | 2.3 | 108 |
| C[C@@H]1CN(c2ccc(C(=O)Nc3ccc(Cl)c(-c4ncc(-c5cccs5)[nH]4)c3)c(C(F)(F)F)c2)C[C@H](C)N1C [Example 155, N-(3-(5-(thiophen-2-yl)-1H-imidazol-2-yl)-4-chlorophenyl)-2-(trifluoro-methyl)-4-((3S,5R)-3,4,5-trimethylpiperazin-1-yl)benzamide] | 0.11 | 0.22 | 13 |
| O=C(Nc1ccc(Cl)c(-c2nc3ccccc3[nH]2)c1)c1ccc(-c2ccc(C(F)(F)F)cc2)cc1 [Example 22, N-(3-(1H-benzo[d]imidazol-2-yl)-4-chlorophenyl)-4′-(trifluoromethyl)biphenyl-4-carboxamide] | 15 | 16 | 124 |
| Cc1cc(N2C[C@@H](C)N(C)[C@@H](C)C2)ccc1C(=O)Nc1ccc(Cl)c(-c2nc3ccc(Cl)cc3[nH]2)c1 [Example 97, N-(3-(6-chloro-1H-benzo[d]imidazol-2-yl)-4-chlorophenyl)-2-methyl-4-((3S,5R)-3,4,5-trimethylpiperazin-1-yl)benzamide] | 0.59 | 1.7 | 32 |
| C[C@@H]1CN(c2ccc(C(=O)Nc3ccc(Cl)c(-c4ncc(C5CCCC5)[nH]4)c3)c(Cl)c2)C[C@H](C)N1C [Example 182, N-(3-(5-cyclopentyl-1H-imidazol-2-yl)-4-chlorophenyl)-2-chloro-4-((3S,5R)-3,4,5-trimethylpiperazin-1-yl)benzamide] | 9 | 4.5 | 100 |
| Cc1c(C(=O)Nc2ccc(Cl)c(-c3ncc(C4CC4)[nH]3)c2)ccc(N2C[C@@H](C)N(C)[C@@H](C)C2)c1F [Example 179, N-(3-(5-cyclopropyl-1H-imidazol-2-yl)-4-chlorophenyl)-2-methyl-3-fluoro-4-((3S,5R)-3,4,5-trimethylpiperazin-1-yl)benzamide] | 0.39 | 0.43 | 21 |
| C[C@@H]1CN(c2ccc(C(=O)Nc3ccc(Cl)c(-c4nc5ccccc5[nH]4)c3)c(Cl)n2)C[C@H](C)N1C [Example 117, N-(3-(1H-benzo[d]imidazol-2-yl)-4-chlorophenyl)-2-chloro-6-((3S,5R)-3,4,5-trimethylpiperazin-1-yl)nicotinamide] | 4.6 | 1.2 | 27 |
